Measured values: publication PMC5845869 (Frontiers in Microbiology, 2018)
Values after ≈ are worked out from the molar mass of the structure shown. Where two headings read alike, the source gives them in different places. Ends that are not written are not given here. Peptide text beside a SMILES is read from it.

What was measured:
Candida krusei CBS 573 = tested on: Candida krusei CBS 573
Procedure: (§1) Susceptibility tests were performed in low ionic strength broth medium (LCM: 0.5% glucose, 0.25% yeast extract, 0.0125% peptone (w/v)) and in RPMI 1640 medium (Sigma-Aldrich, St Louis, MO, USA) supplemented with 0.03% (w/v) L-glutamine and buffered to pH 7.0 with 0.165 M 4-morpholinopropanesulfonic acid (Sigma-Aldrich, St Louis, MO, USA).
(§2) Antifungal susceptibility tests were performed with nNFAP2, rNFAP2, and sNFAP2 and its peptide fragments in LCM medium against yeast isolates (10^5 cells ml^−1) according to the broth microdilution method described by Tóth et al. ([2016]). Final drug concentration ranged from 25 to 0.098 μg ml^−1 for rNFAP2 and sNFAP2, and from 100 to 6.25 μg ml^−1 for the synthetic peptide fragments. The rNFAP2 was tested against nine yeast isolates, while the sNFAP2 and the synthetic peptide fragments against C. albicans ATCC 10231, C. krusei CBS 573, C. parapsilosis CBS 604, and S. cerevisiae SZMC 0644.
(§3) LCM plates were incubated at 30°C, while RPMI 1640 plates at 35°C for 48 h without shaking, then the absorbance (OD620) was measured with a microtiter plate reader (SPECTROstar Nano, BMG Labtech, Ortenberg, Germany) after resuspension of the cultures with pipette. The absorbance of the untreated control cultures was referred to 100% growth in each case.
(§4) All susceptibility tests were repeated at least two times in three replicates.

[1] = tested on: Saccharomyces cerevisiae SZMC 0644
Procedure: as §1, §2, §3, §4

[2] = tested on: Candida parapsilosis CBS 604
Procedure: as §1, §2, §3, §4

[3] = tested on: Candida albicans ATCC 10231
Procedure: as §1, §2, §3, §4

[4] = tested on: C. albicans ATCC 10231 cells; assay: Propidium iodide (PI) staining, plasma membrane disruption; assay type: cell-based, Candida albicans; details: treatment at MIC in LCM, 10 min, 30°C; 5 μg ml^−1 PI; fluorescence microscopy
Procedure: After the treatment, cells were washed with LCM, and then stained with 5 μg ml^−1 PI for 10 min at room temperature in the dark, and then they were washed again with LCM and resuspended in final volume of 100 μl LCM. Cells treated with 70% (v/v) ethanol for 10 min at 4°C were used as positive staining control. Untreated cells were used as negative staining control.
Yeast cells were visualized by light and fluorescence microscopy (Carl Zeiss Axiolab LR 66238C; Zeiss, Oberkochen, Germany) and photographed with a microscope camera (Zeiss AxioCam ERc 5s; Zeiss, Oberkochen, Germany).

[5] = Thermal unfolding followed by ECD spectroscopy; assay type: physicochemical; details: for thermal denaturation reversibility: ECD at 95°C, then re-measured after cooling, 5 min at 25°C; for Tm (melting temperature of the native protein structure): ECD at 228 nm, 25 to 95°C at 1°C min^−1, approx. 0.1 mg ml^−1 in H2O, inflection of sigmoidal fit; for native fold remains intact up to: thermal unfolding followed by ECD
Procedure: ECD spectroscopic measurements were performed using a Jasco-J815 spectropolarimeter (JASCO Corporation, Tokyo, Japan), in the far-UV range (185–260 nm). Protein samples were dissolved in pure H2O in approximately 0.1 mg ml^−1 concentration and measured in a 0.1 cm pathlength quartz cuvette. First, ECD spectra of samples were recorded at 25°C with a scan speed of […]. […] The system was allowed to equilibrate for 1 min before measurements were taken at each temperature point.
The obtained melting curves were fitted with an inverse sigmoidal function of which inflection point designated the melting temperature (Tm) of the native protein structure.
ECD spectra were also recorded at 95°C, the final temperature of the thermal unfolding experiments, then samples were allowed to cool and measured again after 5 min of equilibration at 25°C. The reported spectra are accumulations of 10 scans, from which the similarly recorded, corresponding solvent spectrum was subtracted. Data are given as molar ellipticities. Accurate protein sample concentrations for the corrections of ECD spectra were determined using analytical RP-HPLC.

[6] = tested on: Candida guilliermondii CBS 566; assay: MIC, broth microdilution in LCM; assay type: cell-based; details: 10^5 cells ml^−1, 48 h, 30°C, MIC = growth ≤ 5% (OD620)
Procedure: as §1, §2, §3, §4

[7] = tested on: Schizosaccharomyces pombe SZMC 0142; assay: MIC, broth microdilution in LCM; assay type: cell-based; details: 10^5 cells ml^−1, 48 h, 30°C, MIC = growth ≤ 5% (OD620)
Procedure: as §1, §2, §3, §4

Candida glabrata CBS 138 = assay: MIC, broth microdilution in LCM; assay type: cell-based; details: 10^5 cells ml^−1, 48 h, 30°C, MIC = growth ≤ 5% (OD620)
Procedure: as §1, §2, §3, §4

[8] = tested on: Candida tropicalis CBS 94; assay: MIC, broth microdilution in LCM; assay type: cell-based; details: 10^5 cells ml^−1, 48 h, 30°C, MIC = growth ≤ 5% (OD620)
Procedure: as §1, §2, §3, §4

[9] = tested on: Candida lusitaniae CBS 6936; assay: MIC, broth microdilution in LCM; assay type: cell-based; details: 10^5 cells ml^−1, 48 h, 30°C, MIC = growth ≤ 5% (OD620)
Procedure: as §1, §2, §3, §4

[10] = LCM, 10^5 cells ml^−1, 48 h, 30°C, MIC = growth ≤ 5% (OD620)

Row | Compound | MIC (Candida krusei CBS 573; CBS 573, 48 h) [µg/mL] | MIC ([1]; SZMC 0644, 48 h) [µg/mL] | MIC ([2]; CBS 604, 48 h) [µg/mL] | MIC ([3]; ATCC 10231, 48 h) [µg/mL] | Plasma membrane disruption (PI staining) [4] | also measured
1 | KYHSGPSDKSKVIS [Fr-5] | >100 | >100 | >100 | >100 |  | 
2 | CC[C@H](C)[C@H](N)C(=O)N[C@@H](C)C(=O)NCC(=O)N[C@@H](C)C(=O)N[C@@H](Cc1c[nH]cn1)C(=O)N[C@@H](CCCCN)C(=O)N[C@@H](CS)C(=O)N[C@@H](CCCCN)C(=O)N1CCC[C@H]1C(=O)N[C@@H](CS)C(=O)N[C@@H](Cc1ccc(O)cc1)C(=O)NCC(=O)N[C@@H](Cc1ccc(O)cc1)C(=O)N[C@@H](CCCCN)C(=O)N[C@H](C(=O)N[C@@H](CC(N)=O)C(=O)N[C@@H](CO)C(=O)N[C@@H](CS)C(=O)N[C@@H](CS)C(=O)N[C@@H](CC(N)=O)C(=O)N[C@@H](CO)C(=O)N1CCC[C@H]1C(=O)N[C@@H](CC(N)=O)C(=O)O)[C@@H](C)O [Sh-Fr-2] (H-IAGAHKCKPCYGYKTNSCCNSPN-OH; N-terminus and C-terminus assumed) |  |  |  |  | prompt plasma membrane disruption effect | 
3 | NCCCC[C@H](NC(=O)CNC(=O)[C@H](CCCCN)NC(=O)[C@H](CC(N)=O)NC(=O)[C@H](CS)NC(=O)[C@@H](N)CS)C(=O)N[C@@H](CC(N)=O)C(=O)N[C@@H](CCCCN)C(=O)NCC(=O)N[C@@H](CO)C(=O)N[C@@H](Cc1c[nH]cn1)C(=O)O [Sh-Fr-4] (H-CCNKGKNKGSH-OH; N-terminus and C-terminus assumed) | 50 (≈ 42.5 µM) | 50 (≈ 42.5 µM) | 50 (≈ 42.5 µM) | 50 (≈ 42.5 µM) | prompt plasma membrane disruption effect | 
4 | CC[C@H](C)[C@H](N)C(=O)N[C@@H](C)C(=O)N[C@H](C(=O)N[C@@H](CO)C(=O)N1CCC[C@H]1C(=O)N[C@@H](Cc1ccc(O)cc1)C(=O)N[C@@H](Cc1ccc(O)cc1)C(=O)N[C@@H](C)C(=O)N[C@@H](CS)C(=O)N[C@@H](CC(N)=O)C(=O)N[C@@H](CS)C(=O)N1CCC[C@H]1C(=O)N[C@@H](CC(N)=O)C(=O)N[C@@H](CC(N)=O)C(=O)N[C@@H](CS)C(=O)N[C@@H](CCCCN)C(=O)N[C@@H](Cc1c[nH]cn1)C(=O)N[C@@H](CCCCN)C(=O)N[C@@H](CCCCN)C(=O)NCC(=O)N[C@@H](CO)C(=O)NCC(=O)N[C@@H](CS)C(=O)O)[C@@H](C)O [Fr-2] (H-IATSPYYACNCPNNCKHKKGSGC-OH; N-terminus and C-terminus assumed) |  |  |  |  | prompt plasma membrane disruption effect | 
5 | CC[C@H](C)[C@H](NC(=O)[C@H](CS)NC(=O)[C@H](CC(N)=O)NC(=O)[C@H](CC(C)C)NC(=O)[C@H](CCC(N)=O)NC(=O)CNC(=O)CNC(=O)[C@H](CCC(N)=O)NC(=O)[C@H](Cc1c[nH]c2ccccc12)NC(=O)[C@H](CCC(=O)O)NC(=O)[C@H](CS)NC(=O)[C@H](CCCCN)NC(=O)CNC(=O)[C@H](CO)NC(=O)[C@@H](NC(=O)[C@@H](NC(=O)[C@H](CCCCN)NC(=O)[C@H](CO)NC(=O)[C@H](CCCCN)NC(=O)[C@H](CC(=O)O)NC(=O)[C@H](CO)NC(=O)[C@@H]1CCCN1C(=O)CNC(=O)[C@H](CO)NC(=O)[C@H](Cc1c[nH]cn1)NC(=O)[C@H](Cc1ccc(O)cc1)NC(=O)[C@@H](N)CCCCN)C(C)C)[C@@H](C)CC)C(=O)N[C@@H](C)C(=O)N[C@H](C(=O)O)[C@@H](C)O [Fr-1] (H-KYHSGPSDKSKVISGKCEWQGGQLNCIAT-OH; N-terminus and C-terminus assumed) | 100 (≈ 32 µM) | 100 (≈ 32 µM) | >100 | >100 |  | 
6 | IATSPYYACNCPNNCKHKKGSGCKYHSGPSDKSKVISGKCEWQGGQLNCIAT (disulfide (positions not given here)) [sNFAP2] |  |  |  |  |  | thermal denaturation reversibility [5]: reversible; Tm (melting temperature of the native protein structure) [5]: 74.94 °C; native fold remains intact up to [5]: approximately 70 °C; MIC (Candida krusei CBS 573; [10]): 12.5 µg/mL; MIC [1, 10]: 3.125 µg/mL; MIC [2, 10]: 1.56 µg/mL; MIC [3, 10]: 6.25 µg/mL
7 | NCCCC[C@H](NC(=O)[C@H](CCCCN)NC(=O)[C@H](Cc1c[nH]cn1)NC(=O)[C@H](CCCCN)NC(=O)[C@H](CS)NC(=O)[C@H](CC(N)=O)NC(=O)[C@@H](N)CC(N)=O)C(=O)NCC(=O)N[C@@H](CO)C(=O)NCC(=O)N[C@@H](CS)C(=O)O [Fr-4] (H-NNCKHKKGSGC-OH; N-terminus and C-terminus assumed) | 50 (≈ 42.5 µM) | 50 (≈ 42.5 µM) | 50 (≈ 42.5 µM) | 50 (≈ 42.5 µM) | prompt plasma membrane disruption effect | 
8 | CC[C@H](C)[C@H](NC(=O)[C@H](CS)NC(=O)[C@H](CC(N)=O)NC(=O)[C@H](CC(C)C)NC(=O)[C@H](CCC(N)=O)NC(=O)CNC(=O)CNC(=O)[C@H](CCC(N)=O)NC(=O)[C@H](Cc1c[nH]c2ccccc12)NC(=O)[C@H](CCC(=O)O)NC(=O)[C@H](CS)NC(=O)[C@H](CCCCN)NC(=O)CN)C(=O)N[C@@H](C)C(=O)N[C@H](C(=O)O)[C@@H](C)O [Fr-3] (H-GKCEWQGGQLNCIAT-OH; N-terminus and C-terminus assumed) | >100 | >100 | >100 | >100 | did not disrupt the plasma membrane | 
9 | CC[C@H](C)[C@H](N)C(=O)N[C@@H](C)C(=O)N[C@H](C(=O)N[C@@H](CO)C(=O)N1CCC[C@H]1C(=O)N[C@@H](Cc1ccc(O)cc1)C(=O)N[C@@H](Cc1ccc(O)cc1)C(=O)N[C@@H](C)C(=O)N[C@@H](CS)C(=O)N[C@@H](CC(N)=O)C(=O)N[C@@H](CS)C(=O)N1CCC[C@H]1C(=O)O)[C@@H](C)O [Fr-6] (H-IATSPYYACNCP-OH; N-terminus and C-terminus assumed) | >100 | >100 | >100 | >100 |  | 
10 | IATSPYYACNCPNNCKHKKGSGCKYHSGPSDKSKVISGKCEWQGGQLNCIAT (disulfide (positions not given here)) [nNFAP2] |  |  |  |  |  | thermal denaturation reversibility [5]: reversible; Tm (melting temperature of the native protein structure) [5]: 72.92 °C; native fold remains intact up to [5]: approximately 70 °C; MIC (Candida krusei CBS 573; [10]): 12.5 µg/mL; MIC [1, 10]: 3.125 µg/mL; MIC [2, 10]: 1.56 µg/mL; MIC [3, 10]: 6.25 µg/mL; MIC [6]: 1.56 µg/mL; MIC [7]: 1.56 µg/mL; MIC (Candida glabrata CBS 138): 1.56 µg/mL; MIC [8]: 1.56 µg/mL; MIC [9]: 3.125 µg/mL
